# Laboratory results published in patent publication US8715731B2, “Process of reducing the bitter taste of water soluble actives by co-grinding the active with β cyclodextrin” (ISP Investments Inc., priority 2006, dated 2014).
# Assay: physchem
# Conditions: water
# Method: The degree of formation of an inclusion complex between the drug and β-cyclodextrin was determined quantitatively by Differential Scanning Calorimetry (DSC).
compound,measurement,value
NC(N)=Nc1nc(CSCCC(N)=NS(N)(=O)=O)cs1 [famotidine],solubility,1000 µg/mL
